Experimental data as given in patent US20260262643A1, “HERBICIDAL BENZOXAZINES” (FMC CORPORATION, priority 2022, published 2026).

Key:
pigweed, palmer [1] = assay: Test C postemergence; assay type: in vivo, Amaranthus palmeri; details: 10 days
Summary of the method: (§1)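 Pre: seeds in loam/sand, directed soil spray. Post: 1–2 leaf plants, 2–10 cm. Cmpd in non-phytotoxic solvent + surfactant. Greenhouse 10 d; visual rating vs untreated, 0 = none, 100 = complete control.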

soybean [2] = assay: Test C preemergence; assay type: in vivo, Glycine max; details: for Plant response rating, Soybean: Preemergence; for Soybean plant response rating: preemergence
Summary of the method: as §1

blackgrass [3] = assay: Test C preemergence; assay type: in vivo, Alopecurus myosuroides; details: for Plant response rating, Blackgrass: Preemergence; for Blackgrass plant response rating: preemergence
Summary of the method: as §1

wheat [4] = assay: Test C preemergence; assay type: in vivo, Triticum aestivum; details: for Plant response rating, Wheat: Preemergence; for Wheat plant response rating: preemergence
Summary of the method: as §1

ragweed [5] = assay: Test C preemergence; assay type: in vivo, Ambrosia artemisiifolia; details: for Plant response rating, Ragweed: Preemergence; for Ragweed plant response rating: preemergence
Summary of the method: as §1

barnyardgrass [6] = assay: Test C postemergence; assay type: in vivo, Echinochloa crusgalli; details: 10 days
Summary of the method: as §1

ryegrass, Italian [7] = assay: Test C preemergence; assay type: in vivo, Lolium multiflorum; details: for Plant response rating, Ryegrass, Italian: Preemergence; for Ryegrass, Italian plant response rating: preemergence
Summary of the method: as §1

kochia [8] = assay: Test C postemergence; assay type: in vivo, Bassia scoparia; details: 10 days
Summary of the method: as §1

ryegrass, Italian [9] = assay: Test C postemergence; assay type: in vivo, Lolium multiflorum; details: 10 days
Summary of the method: as §1

corn [10] = assay: Test C postemergence; assay type: in vivo, Zea mays; details: 10 days
Summary of the method: as §1

oat, wild [11] = assay: Test C preemergence; assay type: in vivo, Avena fatua; details: for Plant response rating, Oat, Wild: Preemergence; for Oat, Wild plant response rating: preemergence
Summary of the method: as §1

blackgrass [12] = assay: Test C postemergence; assay type: in vivo, Alopecurus myosuroides; details: 10 days
Summary of the method: as §1

corn [13] = assay: Test C preemergence; assay type: in vivo, Zea mays; details: for Plant response rating, Corn: Preemergence; for Corn plant response rating: preemergence
Summary of the method: as §1

wheat [14] = assay: Test C postemergence; assay type: in vivo, Triticum aestivum; details: 10 days
Summary of the method: as §1

kochia [15] = assay: Test C preemergence; assay type: in vivo, Bassia scoparia; details: for Plant response rating, Kochia: Preemergence; for Kochia plant response rating: preemergence
Summary of the method: as §1

ragweed [16] = assay: Test C postemergence; assay type: in vivo, Ambrosia artemisiifolia; details: 10 days
Summary of the method: as §1

rice = assay: Test D flooded paddy test; assay type: in vivo, Oryza sativa; details: 250 g ai/ha, applied to paddy water, visual rating after 13 to 14 days, scale 0 to 100 (0 no effect, 100 complete control)
Summary of the method: (§2)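 Rating scale 0–100 (0 no effect, 100 complete control), visual, versus controls. Readout at 13–14 days after in-water application to 2-leaf plants in pots flooded 3 cm deep.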

green foxtail [17] = assay: Test C postemergence; assay type: in vivo, Setaria viridis; details: 10 days
Summary of the method: as §1

soybean [18] = assay: Test C postemergence; assay type: in vivo, Glycine max; details: 10 days
Summary of the method: as §1

horseweed = assay: Test C postemergence; assay type: in vivo, Erigeron canadensis; details: 10 days
Summary of the method: as §1

oat, wild [19] = assay: Test C postemergence; assay type: in vivo, Avena fatua; details: 10 days
Summary of the method: as §1

ducksalad = assay: Test D flooded paddy test; assay type: in vivo, Heteranthera limosa; details: 250 g ai/ha, applied to paddy water, visual rating after 13 to 14 days, scale 0 to 100 (0 no effect, 100 complete control)
Summary of the method: as §2

barnyardgrass [20] = assay: Test D flooded paddy test; assay type: in vivo, Echinochloa crus-galli; details: 250 g ai/ha, applied to paddy water, visual rating after 13 to 14 days, scale 0 to 100 (0 no effect, 100 complete control)
Summary of the method: as §2

sedge, umbrella = assay: Test D flooded paddy test; assay type: in vivo, Cyperus difformis; details: 250 g ai/ha, applied to paddy water, visual rating after 13 to 14 days, scale 0 to 100 (0 no effect, 100 complete control)
Summary of the method: as §2

green foxtail [21] = assay: Test C preemergence; assay type: in vivo, Setaria viridis; details: for Plant response rating, Foxtail, Green: Preemergence; for Foxtail, Green plant response rating: preemergence
Summary of the method: as §1

barnyardgrass [22] = assay: Test C preemergence; assay type: in vivo, Echinochloa crusgalli; details: for Plant response rating, Barnyardgrass: Preemergence; for Barnyardgrass plant response rating: preemergence
Summary of the method: as §1

pigweed, palmer [23] = assay: Test C preemergence; assay type: in vivo, Amaranthus palmeri; details: for Plant response rating, Pigweed, Palmer: Preemergence; for Pigweed, Palmer plant response rating: preemergence
Summary of the method: as §1

[24] = 125 g ai/ha, postemergence, 0 to 100 scale, 0 no effect, 100 complete control
[25] = Postemergence, 500 g ai/ha, visual 0 to 100 scale (0 no effect, 100 complete control)
[26] = 500 g ai/ha, visual rating after 10 days, 0 to 100 scale (0 no effect, 100 complete control)
[27] = Test C, 125 g ai/ha, 0 to 100 scale (0 no effect, 100 complete control)
[28] = 500 g ai/ha, postemergence, 0 to 100 scale (0 no effect, 100 complete control)
[29] = Postemergence, 125 g ai/ha, 0 to 100 scale (0 no effect, 100 complete control)
[30] = 500 g ai/ha, 0 to 100 scale (0 no effect, 100 complete control)
[31] = 125 g ai/ha, 0 to 100 scale, 0 no effect, 100 complete control

`COc1cc(C(=O)N2C[C@H](C)Oc3c(Cl)cccc32)cc(-n2cnc(C(C)C)n2)c1` [Compound 212] was tested, and the “Plant response rating, Pigweed, Palmer” value (pigweed, palmer [1]; [24]) was 90, the “Plant response rating, Pigweed, Palmer” value (pigweed, palmer [1]; [25]) was 90 and the “Plant response rating, Soybean” value (soybean [2]; [26]) was 100. For the same compound, the “Soybean plant response rating” value (soybean [2]; [27]) was 90, the “Plant response rating, Blackgrass” value (blackgrass [3]; [26]) was 90 and the “Blackgrass plant response rating” value (blackgrass [3]; [27]) was 60. The “Plant response rating, Wheat” value (wheat [4]; [26]) was 30, the “Wheat plant response rating” value (wheat [4]; [27]) was 40 and the “Plant response rating, Ragweed” value (ragweed [5]; [26]) was 50. The “Ragweed plant response rating” value (ragweed [5]; [27]) was 0, the “Plant response rating, Barnyardgrass” value (barnyardgrass [6]; [24]) was 30 and the “Plant response rating, Barnyardgrass” value (barnyardgrass [6]; [25]) was 50. The “Plant response rating, Ryegrass, Italian” value (ryegrass, Italian [7]; [26]) was 100, the “Ryegrass, Italian plant response rating” value (ryegrass, Italian [7]; [27]) was 90 and the “Plant response rating, Kochia” value (kochia [8]; [24]) was 80. The “Plant response rating, Kochia” value (kochia [8]; [25]) was 90, the “Plant response rating, Ryegrass, Italian” value (ryegrass, Italian [9]; [24]) was 50 and the “Plant response rating, Ryegrass, Italian” value (ryegrass, Italian [9]; [25]) was 70. For the same compound, the “Plant response rating, Corn” value (corn [10]; [24]) was 20, the “Plant response rating, Corn” value (corn [10]; [25]) was 90 and the “Plant response rating, Oat, Wild” value (oat, wild [11]; [26]) was 90. The “Oat, Wild plant response rating” value (oat, wild [11]; [27]) was 70, the “Plant response rating, Blackgrass” value (blackgrass [12]; [24]) was 50 and the “Plant response rating, Blackgrass” value (blackgrass [12]; [25]) was 100. The “Plant response rating, Corn” value (corn [13]; [26]) was 70, the “Corn plant response rating” value (corn [13]; [27]) was 20 and the “Plant response rating, Wheat” value (wheat [14]; [24]) was 20. The “Plant response rating, Wheat” value (wheat [14]; [25]) was 80, the “Plant response rating, Kochia” value (kochia [15]; [26]) was 90 and the “Kochia plant response rating” value (kochia [15]; [27]) was 90. For the same compound, the “Plant response rating, Ragweed” value (ragweed [16]; [24]) was 20, the “Plant response rating, Ragweed” value (ragweed [16]; [25]) was 70 and the “Plant response rating, Rice (Flood)” value (rice) was 40. For the same compound, the “Plant response rating, Foxtail, Green” value (green foxtail [17]; [24]) was 80, the “Plant response rating, Foxtail, Green” value (green foxtail [17]; [25]) was 90 and the “Plant response rating, Soybean” value (soybean [18]; [24]) was 100. For the same compound, the “Plant response rating, Soybean” value (soybean [18]; [25]) was 100, the “Plant response rating, Horseweed” value (horseweed; [24]) was 0 and the “Plant response rating, Horseweed” value (horseweed; [25]) was 50. The “Plant response rating, Oat, Wild” value (oat, wild [19]; [24]) was 40, the “Plant response rating, Oat, Wild” value (oat, wild [19]; [25]) was 80 and the “Plant response rating, Ducksalad (Flood)” value (ducksalad) was 95. The “Plant response rating, Barnyardgrass (Flood)” value (barnyardgrass [20]) was 25, the “Plant response rating, Sedge, Umbrella (Flood)” value (sedge, umbrella) was 98 and the “Plant response rating, Foxtail, Green” value (green foxtail [21]; [26]) was 100. The “Foxtail, Green plant response rating” value (green foxtail [21]; [27]) was 100, the “Plant response rating, Barnyardgrass” value (barnyardgrass [22]; [26]) was 100 and the “Barnyardgrass plant response rating” value (barnyardgrass [22]; [27]) was 80. For the same compound, the “Plant response rating, Pigweed, Palmer” value (pigweed, palmer [23]; [26]) was 100 and the “Pigweed, Palmer plant response rating” value (pigweed, palmer [23]; [27]) was 100.
In the case of `CCOC[C@H]1CN(C(=O)c2cc(-n3cnc(C(C)(C)C)n3)cc3c2OCO3)c2cccc(Cl)c2O1` [Compound 401], the “Plant response rating, Pigweed, Palmer” value (pigweed, palmer [1]; [28]) is reported as 90, the “Plant response rating, Pigweed, Palmer” value (pigweed, palmer [1]; [29]) is reported as 100 and the “Soybean plant response rating” value (soybean [2]; [30]) is reported as 40. The “Plant response rating, Soybean” value (soybean [2]; [31]) was 0, the “Blackgrass plant response rating” value (blackgrass [3]; [30]) was 30 and the “Plant response rating, Blackgrass” value (blackgrass [3]; [31]) was 30. The “Wheat plant response rating” value (wheat [4]; [30]) was 20, the “Plant response rating, Wheat” value (wheat [4]; [31]) was 0 and the “Ragweed plant response rating” value (ragweed [5]; [30]) was 60. The “Plant response rating, Ragweed” value (ragweed [5]; [31]) was 0, the “Plant response rating, Barnyardgrass” value (barnyardgrass [6]; [28]) was 20 and the “Plant response rating, Barnyardgrass” value (barnyardgrass [6]; [29]) was 10. The “Ryegrass, Italian plant response rating” value (ryegrass, Italian [7]; [30]) was 90, the “Plant response rating, Ryegrass, Italian” value (ryegrass, Italian [7]; [31]) was 70 and the “Plant response rating, Kochia” value (kochia [8]; [28]) was 100. The “Plant response rating, Kochia” value (kochia [8]; [29]) was 90, the “Plant response rating, Ryegrass, Italian” value (ryegrass, Italian [9]; [29]) was 0 and the “Plant response rating, Corn” value (corn [10]; [28]) was 40. For the same compound, the “Plant response rating, Corn” value (corn [10]; [29]) was 0, the “Oat, Wild plant response rating” value (oat, wild [11]; [30]) was 40 and the “Plant response rating, Oat, Wild” value (oat, wild [11]; [31]) was 0. The “Plant response rating, Blackgrass” value (blackgrass [12]; [28]) was 30, the “Plant response rating, Blackgrass” value (blackgrass [12]; [29]) was 10 and the “Corn plant response rating” value (corn [13]; [30]) was 20. The “Plant response rating, Corn” value (corn [13]; [31]) was 0, the “Plant response rating, Wheat” value (wheat [14]; [29]) was 10 and the “Kochia plant response rating” value (kochia [15]; [30]) was 90. For the same compound, the “Plant response rating, Kochia” value (kochia [15]; [31]) was 0, the “Plant response rating, Ragweed” value (ragweed [16]; [29]) was 60 and the “Plant response rating, Rice (Flood)” value (rice) was 0. For the same compound, the “Plant response rating, Foxtail, Green” value (green foxtail [17]; [28]) was 20, the “Plant response rating, Foxtail, Green” value (green foxtail [17]; [29]) was 10 and the “Plant response rating, Soybean” value (soybean [18]; [29]) was 0. The “Plant response rating, Horseweed” value (horseweed; [28]) was 70, the “Plant response rating, Horseweed” value (horseweed; [29]) was 60 and the “Plant response rating, Oat, Wild” value (oat, wild [19]; [28]) was 0. The “Plant response rating, Oat, Wild” value (oat, wild [19]; [29]) was 0, the “Plant response rating, Ducksalad (Flood)” value (ducksalad) was 0 and the “Plant response rating, Barnyardgrass (Flood)” value (barnyardgrass [20]) was 0. The “Plant response rating, Sedge, Umbrella (Flood)” value (sedge, umbrella) was 0, the “Foxtail, Green plant response rating” value (green foxtail [21]; [30]) was 100 and the “Plant response rating, Foxtail, Green” value (green foxtail [21]; [31]) was 20. The “Barnyardgrass plant response rating” value (barnyardgrass [22]; [30]) was 70, the “Plant response rating, Barnyardgrass” value (barnyardgrass [22]; [31]) was 30 and the “Pigweed, Palmer plant response rating” value (pigweed, palmer [23]; [30]) was 100. The “Plant response rating, Pigweed, Palmer” value (pigweed, palmer [23]; [31]) was 100.
